Assay results as given in the supplement of paper PMC11451515.

What was measured:
Details in all cases: 48 h
NOMO1 [1] = assay: cell viability relative to DMSO control; higher = less cytotoxic
Procedure, shortened: (§1)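 Viability, reported as a per-plate percentage of DMSO wells with cell-free wells as background, came from CellTiter-Glo One luminescence. Reading took place after 48 h at 37°C. Before that, NOMO1 or SEM (500 cells/well) or P12-Ichikawa (1000 cells/well) leukemia cells, adapted for at least four passages in each medium, were seeded in 1536-well plates (5 μl) and pin-dosed with library compounds in DMSO, 47 μM to 0.79 nM over 11 threefold points.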

P12-Ichikawa [2] = assay: as above
Procedure, shortened: as §1

SEM cells [3] = assay: as above
Procedure, shortened: as §1

NOMO1 [4] = assay: AUC of viability dose-response curve (% viability x log10 dose units); higher = less sensitive
Procedure, shortened: (§2)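 Leukemia cells adapted to each medium were seeded in 1536-well plates (500 or 1000 cells/well) and given library compounds in DMSO for 48 h at 37°C. The 11 threefold doses spanned 47 μM to 0.79 nM, and CellTiter-Glo One luminescence was normalised per plate to DMSO and cell-free wells before four-parameter log-logistic fitting on log10 dose. Area under the curve was integrated with the trapezoidal rule, scaling curves above full viability and removing curves that failed quality control.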

P12-Ichikawa [5] = assay: as above
Procedure, shortened: as §2

SEM cells [6] = assay: as above
Procedure, shortened: as §2

NC(CO)(CO)CCc1ccc(Sc2cccc(OCc3ccccc3)c2)cc1Cl
cell viability [%]
Details | NOMO1 [1] | P12-Ichikawa [2] | SEM cells [3]
HPLM + 10% dialyzed FBS, 0.000781 µM | 108 | 99.1 | 89.6
HPLM + 10% dialyzed FBS, 0.00234 µM | 107 | 101 | 95.8
HPLM + 10% dialyzed FBS, 0.00702 µM | 118 | 110 | 95.2
HPLM + 10% dialyzed FBS, 0.0211 µM | 118 | 114 | 56.6
HPLM + 10% dialyzed FBS, 0.0632 µM | 124 | 115 | 99.1
HPLM + 10% dialyzed FBS, 0.19 µM | 129 | 122 | 121
HPLM + 10% dialyzed FBS, 0.569 µM | 111 | 88.5 | 6.82
HPLM + 10% dialyzed FBS, 1.71 µM | 121 | 106 | 72.9
HPLM + 10% dialyzed FBS, 5.12 µM | 63.1 | 76.2 | 103
HPLM + 10% dialyzed FBS, 15.4 µM | 38.6 | 18.4 | 53.9
HPLM + 10% dialyzed FBS, 46.1 µM | 8.35 | 6.24 | 6.98
RPMI 5 mM glucose + 10% FBS, 0.000781 µM | 104 | 91.8 | 82.7
RPMI 5 mM glucose + 10% FBS, 0.00234 µM | 103 | 99.7 | 99
RPMI 5 mM glucose + 10% FBS, 0.00702 µM | 116 | 101 | 94.9
RPMI 5 mM glucose + 10% FBS, 0.0211 µM | 122 | 111 | 49.6
RPMI 5 mM glucose + 10% FBS, 0.0632 µM | 107 | 102 | 104
RPMI 5 mM glucose + 10% FBS, 0.19 µM | 107 | 102 | 114
RPMI 5 mM glucose + 10% FBS, 0.569 µM | 117 | 86.4 | 7.12
RPMI 5 mM glucose + 10% FBS, 1.71 µM | 115 | 104 | 67.1
RPMI 5 mM glucose + 10% FBS, 5.12 µM | 120 | 72.1 | 91.7
RPMI 5 mM glucose + 10% FBS, 15.4 µM | 40.1 | 34.9 | 34.3
RPMI 5 mM glucose + 10% FBS, 46.1 µM | 5.44 | 5.17 | 7.48
RPMI 5 mM glucose + 10% dialyzed FBS, 0.000781 µM | 93.5 | 101 | 80.3
RPMI 5 mM glucose + 10% dialyzed FBS, 0.00234 µM | 103 | 112 | 105
RPMI 5 mM glucose + 10% dialyzed FBS, 0.00702 µM | 99.1 | 99.6 | 99.6
RPMI 5 mM glucose + 10% dialyzed FBS, 0.0211 µM | 107 | 116 | 85.2
RPMI 5 mM glucose + 10% dialyzed FBS, 0.0632 µM | 114 | 113 | 111
RPMI 5 mM glucose + 10% dialyzed FBS, 0.19 µM | 109 | 109 | 124
RPMI 5 mM glucose + 10% dialyzed FBS, 0.569 µM | 105 | 89.9 | 8.44
RPMI 5 mM glucose + 10% dialyzed FBS, 1.71 µM | 115 | 100 | 60.7
RPMI 5 mM glucose + 10% dialyzed FBS, 5.12 µM | 113 | 70.3 | 105
RPMI 5 mM glucose + 10% dialyzed FBS, 15.4 µM | 104 | 45.7 | 45.6
RPMI 5 mM glucose + 10% dialyzed FBS, 46.1 µM | 5.71 | 5.62 | 13.2

AUC of viability dose-response curve
Details | HPLM + 10% dialyzed FBS | RPMI 5 mM glucose + 10% FBS | RPMI 5 mM glucose + 10% dialyzed FBS
NOMO1 [4] | 397 | 424 | 453
P12-Ichikawa [5] | 400 | 408 | 400

CO[C@H]1C[C@@H]2CC[C@@H](C)[C@@](O)(O2)C(=O)C(=O)N2CCCC[C@H]2C(=O)O[C@H]([C@H](C)C[C@@H]2CC[C@@H](OC(=O)C(C)(CO)CO)[C@H](OC)C2)CC(=O)[C@H](C)/C=C(\C)[C@@H](O)[C@@H](OC)C(=O)[C@H](C)C[C@H](C)/C=C/C=C/C=C/1C
cell viability [%]
Details | NOMO1 [1] | P12-Ichikawa [2] | SEM cells [3]
HPLM + 10% dialyzed FBS, 0.000781 µM | 91.2 | 110 | 80.2
HPLM + 10% dialyzed FBS, 0.00234 µM | 113 | 117 | 93.3
HPLM + 10% dialyzed FBS, 0.00702 µM | 105 | 113 | 88
HPLM + 10% dialyzed FBS, 0.0211 µM | 98.5 | 106 | 77.7
HPLM + 10% dialyzed FBS, 0.0632 µM | 93.4 | 104 | 76.5
HPLM + 10% dialyzed FBS, 0.19 µM | 102 | 107 | 74.5
HPLM + 10% dialyzed FBS, 0.569 µM | 98.6 | 100 | 64.7
HPLM + 10% dialyzed FBS, 1.71 µM | 92.8 | 96 | 55.4
HPLM + 10% dialyzed FBS, 5.12 µM | 93.9 | 87.2 | 57.7
HPLM + 10% dialyzed FBS, 15.4 µM | 82.1 | 83.4 | 49.1
HPLM + 10% dialyzed FBS, 46.1 µM | 64.7 | 77.9 | 41.6
RPMI 5 mM glucose + 10% FBS, 0.000781 µM | 108 | 92.8 | 71.2
RPMI 5 mM glucose + 10% FBS, 0.00234 µM | 108 | 111 | 78.2
RPMI 5 mM glucose + 10% FBS, 0.00702 µM | 114 | 97.6 | 70.1
RPMI 5 mM glucose + 10% FBS, 0.0211 µM | 117 | 97.8 | 61.6
RPMI 5 mM glucose + 10% FBS, 0.0632 µM | 98.3 | 94.1 | 60.5
RPMI 5 mM glucose + 10% FBS, 0.19 µM | 113 | 90 | 56.3
RPMI 5 mM glucose + 10% FBS, 0.569 µM | 110 | 87.6 | 57.7
RPMI 5 mM glucose + 10% FBS, 1.71 µM | 110 | 84.4 | 52.4
RPMI 5 mM glucose + 10% FBS, 5.12 µM | 77 | 65.8 | 50.5
RPMI 5 mM glucose + 10% FBS, 15.4 µM | 74.5 | 63.3 | 27.3
RPMI 5 mM glucose + 10% FBS, 46.1 µM | 60.3 | 50.1 | 15.7
RPMI 5 mM glucose + 10% dialyzed FBS, 0.000781 µM | 96.1 | 94.3 | 87.4
RPMI 5 mM glucose + 10% dialyzed FBS, 0.00234 µM | 115 | 110 | 97.1
RPMI 5 mM glucose + 10% dialyzed FBS, 0.00702 µM | 106 | 110 | 91.2
RPMI 5 mM glucose + 10% dialyzed FBS, 0.0211 µM | 103 | 92 | 73.1
RPMI 5 mM glucose + 10% dialyzed FBS, 0.0632 µM | 108 | 92.8 | 84.6
RPMI 5 mM glucose + 10% dialyzed FBS, 0.19 µM | 101 | 96.7 | 83.1
RPMI 5 mM glucose + 10% dialyzed FBS, 0.569 µM | 101 | 85 | 64.4
RPMI 5 mM glucose + 10% dialyzed FBS, 1.71 µM | 108 | 89.8 | 61.8
RPMI 5 mM glucose + 10% dialyzed FBS, 5.12 µM | 93.2 | 78.2 | 67.4
RPMI 5 mM glucose + 10% dialyzed FBS, 15.4 µM | 71.6 | 66.5 | 58.4
RPMI 5 mM glucose + 10% dialyzed FBS, 46.1 µM | 64.5 | 52.5 | 23.2

AUC of viability dose-response curve
Details | HPLM + 10% dialyzed FBS | RPMI 5 mM glucose + 10% FBS | RPMI 5 mM glucose + 10% dialyzed FBS
NOMO1 [4] | 453 | 435 | 447
P12-Ichikawa [5] | 427 | 409 | 418

CCOC(=O)[C@H](CCc1ccccc1)N[C@H]1CCc2ccccc2N(CC(=O)O)C1=O
AUC of viability dose-response curve
Details | NOMO1 [4] | P12-Ichikawa [5] | SEM cells [6]
HPLM + 10% dialyzed FBS | 429 | 463 | 458
RPMI 5 mM glucose + 10% FBS | 450 | 458 | 454
RPMI 5 mM glucose + 10% dialyzed FBS | 448 | 457 | 459

CC(C)C[C@H](NC(=O)CNC(=O)c1cc(Cl)ccc1Cl)B1OC(=O)CC(CC(=O)O)(C(=O)O)O1 (some centres undefined)
cell viability [%], SEM cells [3]
Details | HPLM + 10% dialyzed FBS | RPMI 5 mM glucose + 10% FBS
0.000781 µM | 101 | 120
0.00234 µM | 120 | 132
0.00702 µM | 125 | 124
0.0211 µM | 145 | 125
0.0632 µM | 128 | 99.9
0.19 µM | 16 | 13.3
0.569 µM | 8.29 | 8.91
1.71 µM | 7.41 | 8.18
5.12 µM | 5.78 | 6.61
15.4 µM | 4.49 | 4.78
46.1 µM | 4.53 | 4.54

AUC of viability dose-response curve
Details | NOMO1 [4] | P12-Ichikawa [5] | SEM cells [6]
HPLM + 10% dialyzed FBS | 276 | 270 | 231
RPMI 5 mM glucose + 10% FBS | 278 | 269 | 221
RPMI 5 mM glucose + 10% dialyzed FBS | 280 | 269 | 235

CN(C)NC(=O)CCC(=O)O
AUC of viability dose-response curve
Details | NOMO1 [4] | P12-Ichikawa [5] | SEM cells [6]
HPLM + 10% dialyzed FBS | 464 | 464 | 468
RPMI 5 mM glucose + 10% FBS | 467 | 464 | 464
RPMI 5 mM glucose + 10% dialyzed FBS | 471 | 466 | 474
